Data on 22 compounds can be found in US20250368616A1, “NITROGEN-CONTAINING HETEROCYCLIC DERIVATIVE INHIBITOR, AND PREPARATION METHOD THEREFOR AND USE THEREOF” (SHANGHAI HANSOH BIOMEDICAL CO., LTD., priority 2021, published 2025).

This test concerns Ba/F3 EGFR Del19/C797S cells. The test is described as follows: Cell proliferation inhibition assay (Cell Titer-Glo), Ba/F3 EGFR Del19/C797S. Conditions: 72 hours, read-out: Ba/F3 EGFR Del19_C797S IC50. Type of test: cell-based. From the text: Test Example 2: Cell Proliferation Inhibition Assay
Experimental objective: The objective of this test example is to test the inhibitory activity of compounds on the proliferation of different EGFR C797S drug-resistant mutant cell lines Ba/F3 EGFR Del19/T790M/C797S, Ba/F3 EGFR L858R/T790M/C797S, and Ba/F3 EGFR Del19/C797S.
• Ba/F3 EGFR Del19/T790M/C797S cells were purchased from KYinno Biotechnology Co., Ltd.; • Ba/F3 EGFR Del19/C797S cells were purchased from CoBioer Biosciences Co., Ltd.; • Ba/F3 EGFR L858R/T790M/C797S cells were purchased from CoBioer Biosciences Co., Ltd.; • Cell Titer-Glo was purchased from Promega, with a catalog number of G7573; • RPMI 1640 was purchased from Gibco, with a catalog number of 22400089; • FBS was purchased from Gibco, with a catalog number of 10091148; • cell culture plates were purchased from Corning, with a catalog number of 3610.
The inhibitory activity of the compound on the proliferation of different EGFR C797S drug-resistant mutant cell lines was detected using the Cell Titer-Glo method. The different cell lines were cultured in RPMI 1640 complete culture medium containing 10% FBS under conditions of 37° C. and 5% CO2, the cells were collected by centrifugation when growing to a certain density, and adjusted to appropriate cell density after counting, the cells were spread on a white 96-well plate at 90 μL/well, and cultured in a 37° C., 5% CO2 incubator overnight, prepared compound solutions of different concentrations were added at 10 μL/well, corresponding solvent controls were set, and all wells were cultured in a 37° C., 5% CO2 incubator for 72 hours, 50 μL of CellTiter-Glo solution was added to each well, shook and mixed evenly, and incubated in the dark for 10 minutes, and a BioTek Synergy H1 microplate reader was used for reading.
The luminescence signal value was used to calculate the inhibition rate. Graphpad Prism software was used to fit the concentration and inhibition rate to a nonlinear regression curve, so as to obtain the IC50 value, as shown in Tables 3 and 4 below for details.

Turning to `CC#CCn1cc(-c2nccc(Nc3cc4c(C(C)C)ccc(N5C[C@H](CS(C)(=O)=O)[C@H]5C)c4cn3)n2)cn1` [Example 52, N-(2-(1-(but-2-yn-1-yl)-1H-pyrazol-4-yl)pyrimidin-4-yl)-5-isopropyl-8-((2R,3S)-2-methyl-3-((methanesulfonyl)methyl)azetidin-1-yl)isoquinolin-3-amine], the IC50 amounted to 49 nM. The value for `C#CCn1cc(-c2nccc(Nc3cc4c(C(C)C)ccc(N5C[C@H](CS(C)(=O)=O)[C@H]5C)c4cn3)n2)cn1` [Example 53, 5-isopropyl-8-((2R,3S)-2-methyl-3-((methanesulfonyl)methyl)azetidin-1-yl)-N-(2-(1-(prop-2-yn-1-yl)-1H-pyrazol-4-yl)pyrimidin-4-yl)isoquinolin-3-amine] was 49 nM; that for `CC(C)c1ccc(N2C[C@H](CS(C)(=O)=O)[C@H]2C)c2cnc(Nc3ccnc(-c4cn(C)nc4C#N)n3)cc12` [Example 55, 4-(4-((5-isopropyl-8-((2R,3S)-2-methyl-3-((methanesulfonyl)methyl)azetidin-1-yl)isoquinolin-3-yl)amino)pyrimidin-2-yl)-1-methyl-1H-pyrazole-3-carbonitrile] was 25 nM; that for `CC(C)c1ccc(N2C[C@H](CS(C)(=O)=O)[C@H]2C)c2cnc(Nc3ccnc(-c4cn(C)nc4C(F)(F)F)n3)cc12` [Example 56, 5-isopropyl-8-((2R,3S)-2-methyl-3-((methanesulfonyl)methyl)azetidin-1-yl)-N-(2-(1-methyl-3-(trifluoromethyl)-1H-pyrazol-4-yl)pyrimidin-4-yl)isoquinolin-3-amine] was 10 nM.

For `CCc1nn(C)cc1-c1nccc(Nc2cc3c(C(C)C)ccc(N4C[C@H](CS(C)(=O)=O)[C@H]4C)c3cn2)n1` [Example 57, N-(2-(3-ethyl-1-methyl-1H-pyrazol-4-yl)pyrimidin-4-yl)-5-isopropyl-8-((2R,3S)-2-methyl-3-((methanesulfonyl)methyl)azetidin-1-yl)isoquinolin-3-amine], the IC50 turned out to be 26 nM.

Take `Cc1nn(CCO)cc1-c1nccc(Nc2cc3c(C(C)C)ccc(N4C[C@H](CS(C)(=O)=O)[C@H]4C)c3cn2)n1` [Example 58, 2-(4-(4-((5-isopropyl-8-((2R,3S)-2-methyl-3-((methanesulfonyl)methyl)azetidin-1-yl)isoquinolin-3-yl)amino)pyrimidin-2-yl)-3-methyl-1H-pyrazol-1-yl)ethan-1-ol]: the IC50 came out at 52 nM. On to `CC(C)c1ccc(N2C[C@H](CS(C)(=O)=O)[C@H]2C)c2cnc(Nc3ccnc(-c4cn(CCO)nc4C(F)(F)F)n3)cc12` [Example 59, 2-(4-(4-((5-isopropyl-8-((2R,3S)-2-methyl-3-((methanesulfonyl)methyl)azetidin-1-yl)isoquinolin-3-yl)amino)pyrimidin-2-yl)-3-(trifluoromethyl)-1H-pyrazol-1-yl)ethan-1-ol], for which the IC50 is 62 nM. Under `Cc1nn(C)cc1-c1nccc(Nc2cc3c(C(C)C)ccc(N4CC(NS(C)(=O)=O)C4)c3cn2)n1` [Example 60, N-(1-(3-((2-(1,3-dimethyl-1H-pyrazol-4-yl)pyrimidin-4-yl)amino)-5-isopropylisoquinolin-8-yl)azetidin-3-yl)methanesulfonamide] stands 26 nM; under `CC(C)c1ccc(N2C[C@H](CS(C)(=O)=O)[C@H]2C)c2cnc(Nc3ccnc(-c4cn(C)nc4F)n3)cc12` [Example 62, N-(2-(3-fluoro-1-methyl-1H-pyrazolyl-4-yl)pyrimidin-4-yl)-5-isopropyl-8-((2R,3S)-2-methyl-3-((methanesulfonyl)methyl)azabut-1-yl)isoquinolin-3-amine], 40 nM; under `CC(C)c1ccc(C2CC(CS(C)(=O)=O)C2)c2cnc(Nc3ccnc(-c4cn(C)nc4Cl)n3)cc12` (stereo not shown) [Example 63, N-(2-(3-chloro-1-methyl-1H-pyrazol-4-yl)pyrimidin-4-yl)-5-isopropyl-8-(3-((methanesulfonyl)methyl)cyclobutyl)isoquinolin-3-amine], 30 nM. The value for `[2H]C([2H])([2H])n1cc(-c2nccc(Nc3cc4c(C(C)C)ccc(N5C[C@H](CS(C)(=O)=O)[C@H]5C)c4cn3)n2)c([N+](=O)[O-])n1` [Example 64, 5-isopropyl-8-((2R,3S)-2-methyl-3-((methanesulfonyl)methyl)azetidin-1-yl)-N-(2-(1-(methyl-d3)-3-nitro-1H-pyrazol-4-yl)pyrimidin-4-yl)isoquinolin-3-amine] was 62 nM; that for `[2H]C([2H])([2H])n1cc(-c2nccc(Nc3cc4c(C(C)C)ccc(N5C[C@H](CS(C)(=O)=O)[C@H]5C)c4cn3)n2)c(F)n1` [Example 65, N-(2-(3-fluoro-1-(methyl-d3)-1H-pyrazol-4-yl)pyrimidin-4-yl)-5-isopropyl-8-((2R,3S)-2-methyl-3-((methylsulfonyl)methyl)azabut-1-yl)isoquinolin-3-amine] was 84 nM; that for `CC(C)c1ccc(N2C[C@H](CS(C)(=O)=O)[C@H]2C)c2cnc(Nc3ccnc(-c4cn(CCC#N)nc4Cl)n3)cc12` [Example 67, 3-(3-chloro-4-(4-((5-isopropyl-8-((2R,3S)-2-methyl-3-((methanesulfonyl)methyl)azetidin-1-yl)isoquinolin-3-yl)amino)pyrimidin-2-yl)-1H-pyrazol-1-yl)propanenitrile] was 20 nM. The value for `CC(C)c1ccc(N2CC(N3CCCS3(=O)=O)C2)c2cnc(Nc3ccnc(-c4cn(C)nc4Cl)n3)cc12` [Example 68, 2-(1-(3-((2-(3-chloro-1-methyl-1H-pyrazol-4-yl)pyrimidin-4-yl)amino)-5-isopropylisoquinolin-8-yl)azetidin-3-yl)isothiazolidine 1,1-dioxide] was 21 nM.

For `Cc1nn(C)cc1-c1nccc(Nc2cc3c(C(C)C)ccc(N4CC(N5CCCS5(=O)=O)C4)c3cn2)n1` [Example 69, 2-(1-(3-((2-(1,3-dimethyl-1H-pyrazol-4-yl)pyrimidin-4-yl)amino)-5-isopropylisoquinolin-8-yl)azetidin-3-yl)isothiazolidine 1,1-dioxide], the IC50 was found to be 51 nM. Under `CC(C)c1ccc(N2C[C@H](CS(C)(=O)=O)[C@H]2C)c2cnc(Nc3ccnc(-c4cn(CCN)nc4Cl)n3)cc12` [Example 71, N-(2-(1-(2-aminoethyl)-3-chloro-1H-pyrazol-4-yl)pyrimidin-4-yl)-5-isopropyl-8-((2R,3S)-2-methyl-3-((methanesulfonyl)methyl)azetidin-1-yl)isoquinolin-3-amine] stands 96 nM. The value for `COC(=O)NC1CN(c2ccc(C(C)C)c3cc(Nc4ccnc(-c5cn(C)nc5Cl)n4)ncc23)C1` [Example 72, methyl (1-(3-((2-(3-chloro-1-methyl-1H-pyrazol-4-yl)pyrimidin-4-yl)amino)-5-isopropylisoquinolin-8-yl)azetidin-3-yl)carbamate] was 77 nM. Under `CC(C)c1ccc(N2CC(C[N+](=O)[O-])C2)c2cnc(Nc3ccnc(-c4cn(C)nc4Cl)n3)cc12` [Example 75, N-(2-(3-chloro-1-methyl-1H-pyrazol-4-yl)pyrimidin-4-yl)-5-isopropyl-8-(3-(nitromethyl)azetidin-1-yl)isoquinolin-3-amine] stands 28 nM. Turning to `CC(C)c1ccc(N2CC(C[S+](C)[O-])C2)c2cnc(Nc3ccnc(-c4cn(C)nc4Cl)n3)cc12` (stereo not shown) [Example 76, N-(2-(3-chloro-1-methyl-H-pyrazol-4-yl)pyrimidin-4-yl)-5-isopropyl-8-(3-((methylsulfinyl<sulfenyl>)methyl)azetidin-1-yl)isoquinolin-3-amine], the IC50 is 63 nM. Under `Cc1nn(C)c(F)c1-c1nccc(Nc2cc3c(C(C)C)ccc(N4C[C@H](CS(C)(=O)=O)[C@H]4C)c3cn2)n1` [Example 77, N-(2-(5-fluoro-1,3-dimethyl-1H-pyrazol-4-yl)pyrimidin-4-yl)-5-isopropyl-8-((2R,3S)-2-methyl-3-((methanesulfonyl)methyl)azetidin-1-yl)isoquinolin-3-amine] stands 12 nM; under `CC(C)c1ccc(N2C[C@H](CS(C)(=O)=O)[C@H]2C)c2cnc(Nc3ccnc(-c4cn(C5COC5)nc4Cl)n3)cc12` [Example 81, N-(2-(3-chloro-1-(oxetan-3-yl)-1H-pyrazol-4-yl)pyrimidin-4-yl)-5-isopropyl-8-((2R,3S)-2-methyl-3-((methanesulfonyl)methyl)azetidin-1-yl)isoquinolin-3-amine], 50 nM; under `CC(C)c1ccc(N2C[C@H](CS(C)(=O)=O)[C@H]2C)c2cnc(Nc3ccnc(-c4cn(CC(O)CF)nc4Cl)n3)cc12` (stereo partly drawn) [Example 82, 1-(3-chloro-4-(4-((5-isopropyl-8-((2R,3S)-2-methyl-3-((methanesulfonyl)methyl)azetidin-1-yl)isoquinolin-3-yl)amino)pyrimidin-2-yl)-1H-pyrazol-1-yl)-3-fluoropropan-2-ol], 33 nM.
